{"source": "patent US11464750B2", "about": "“Anticancer agent and use thereof” (priority 2017, dated 2022)", "type_in_all_cases": "cell-based, human", "key": {"caspase 3": {"test_system": "caspase 3", "test": "Western blotting, activated caspase 3, Panc-1 cells", "settings": "3 μM, 12 hours after treatment", "protocol": "Specifically, JeKo-1 cells were cultured for 0 (control), 12, 24, and 48 hours in the presence of 0.5 μM of 3EZ,20Ac-ingenol. In addition. Panc-1 cells were cultured for 0 (control), 12, 24, and 48 hours in the presence of 3 μM of 3EZ,20Ac-ingenol. Subsequently, activation of caspase 3 in the respective cells was detected by Western blotting using an anti-activated-caspase antibody (R & D Systems). Furthermore, as a loading control, actin protein was detected using an anti-actin antibody (Sigma)."}, "p21 protein": {"test_system": "p21 protein", "test": "Western blotting, p21 protein, Panc-1 cells", "settings": "3 μM", "protocol": "Specifically, JeKo-1 cells were cultured for 0 (control), 12, 24 and 48 hours in the presence of 0.5 μM of 3EZ,20Ac-ingenol. In addition, Panc-1 cells were cultured for 0 (control), 12, 24, and 48 hours in the presence of 3 μM of 3EZ,20Ac-ingenol.\nSubsequently, phosphorylation of H2AX in the respective cells was detected using an anti-phosphorylated-H2AX antibody (Millipore). In addition, p21 protein was detected using an anti-p21 antibody (Cell Signaling Technology). Furthermore, as a loading control, actin protein was detected using an anti-actin antibody (Sigma)."}, "ATR protein": {"test_system": "ATR protein", "test": "Western blotting, ATR protein, JeKo-1 cells", "settings": "0.5 μM", "protocol": "Specifically, JeKo-1 cells were cultured for 0 (control), 12, 24, and 48 hours in the presence of 0.5 μM of 3EZ,20Ac-ingenol. In addition, Panc-1 cells were cultured for 0 (control), 12, 24, and 48 hours in the presence of 3 μM of 3EZ,20Ac-ingenol.\nSubsequently, ATR protein, p53 protein, and phosphorylated p53 (hereinafter also referred to as “p-p53”) protein in the respective cells were respectively detected using an anti-ATR antibody (Cell Signaling Technology), an anti-p53 antibody (Santa Cruz), and an anti-p-p53 antibody (Cell Signaling Technology). Furthermore, as a loading control, actin protein was detected using an anti-actin antibody (Sigma)."}, "[1]": {"test_system": "phosphorylated Akt (Ser^473)", "test": "Western blotting, p-Akt (Ser473), BALL-1 cells", "settings": "0.5 μM", "protocol": "The effect of 3EZ,20Ac-ingenol treatment on a PI3K/Akt signaling pathway was examined. Specifically, BALL-1 cells, TKG0210 cells, and TKG0377 cells were cultured for 48 hours in the presence of 3EZ,20Ac-ingenol at a final concentration of 0.5 μM, and by Western blotting using an anti-p-Akt (Ser^473) antibody (Cell Signaling Technology), phosphorylation of the 473th serine residue of an Akt protein in respective fractions of the entire cell, a nucleus, and a cytoplasm was analyzed. In addition, cells cultured in the absence of 3EZ,20Ac-ingenol were used as controls.\nThe effect of 3EZ,20Ac-ingenol treatment on PTEN, p-PTEN, and p-Akt of BALL-1 cells was examined. First, BALL-1 cells were cultured for 3, 6, 12, 24, and 48 hours in the presence of 3EZ,20Ac-ingenol at a final concentration of 0.5 μM, and by Western blotting using an anti-PTEN antibody (Santa Cruz), an anti-p-PTEN (Ser^380/Thr^382/383) antibody (Santa Cruz), and an anti-p-Akt (Ser^473) antibody (Cell Signaling Technology), abundances of PTEN, p-PTEN, and p-Akt in the entire cell fraction were analyzed. In addition, cells cultured in the absence of 3EZ,20Ac-ingenol were used as controls.\nBALL-1 cells, TKG0210 cells, and TKG0377 cells were cultured for 24 and 48 hours in the presence of 3EZ,20Ac-ingenol at a final concentration of 0.5 μM, and abundances of p-Akt in the nuclear fraction and the cytoplasm fraction were analyzed by Western blotting. In addition, respective cells cultured in the absence of 3FZ,20Ac-ingenol were used as controls.\nThe effect of 3EZ,20Ac-ingenol treatment on PTEN and p-Akt was examined using siRNA against PTEN. First, BALL-1 cells were cultured for 12, 24, and 48 hours in the presence of 3EZ,20Ac-ingenol at a final concentration of 0.5 μM, and an abundance of p-Akt was analyzed by Western blotting in the same manner as in Experimental Example 11. Cells cultured in the absence of 3EZ,20Ac-ingenol were used as controls.\nSubsequently, siRNA against PTEN (“ON-TARGET Plus Human PTEN (5728) siRNA-SMARTpool,” GE Dharmacon) was introduced into BALL-1 cells at a final concentration of 50 nM and incubated for 48 hours. Subsequently, a cell medium was replaced with a new medium and cultured for 12, 24, and 48 hours in the presence or absence of 3EZ,20Ac-ingenol at a final concentration of 0.5 μM, and by Western blotting using an anti-PTEN antibody (Santa Cruz) and an anti-p-Akt (Ser^473) antibody (Cell Signaling Technology), abundances of PTEN protein and p-Akt were analyzed."}, "p-Akt (Ser^473) [2]": {"test_system": "p-Akt (Ser^473)", "test": "Western blotting, p-Akt, JeKo-1 cells", "settings": "0.5 μM", "protocol": "(§1) Specifically, first, JeKo-1 cells were cultured for 0 (control), 12, 24, and 48 hours in the presence of 0.5 μM of 3EZ,20Ac-ingenol. In addition, Panc-1 cells were cultured for 0 (control), 12, 24, and 48 hours in the presence of 3 μM of 3EZ,20Ac-ingenol.\n(§2) Subsequently, by Western blotting using an anti-Akt antibody (Cell Signaling Technology) and an anti-p-Akt (Ser^473) antibody (Cell Signaling Technology), abundances of total amounts of Akt protein and p-Akt in the entire cell fractions, nuclear fractions, and cytoplasm fractions of the respective cells were analyzed. Furthermore, as a loading control, actin protein was detected using an anti-actin antibody (Sigma)."}, "p-Akt (Ser^473) [3]": {"test_system": "p-Akt (Ser^473)", "test": "Western blotting, p-Akt, Panc-1 cells", "settings": "3 μM", "protocol": "as §1, §2"}, "p-GSK-3β (Ser^9)": {"test_system": "p-GSK-3β (Ser^9)", "test": "Western blotting, p-GSK-3β (Ser9), Panc-1 cells", "settings": "3 μM, entire cell", "protocol": "as §1\nSubsequently, abundances of GSK-3β and p-GSK-3β in the respective cells were analyzed by Western blotting using an anti-GSK-3β antibody (Cell Signaling Technology) and an anti-p-GSK-3β (Ser^9) antibody (Cell Signaling Technology). Furthermore, as a loading control, actin protein was detected using an anti-actin antibody (Sigma)."}}, "note": "“Also recorded” adds a separate entry of the source.", "data": [{"smiles": "CCCCC/C=C\\C=C\\C(=O)O[C@H]1C(C)=C[C@]23C(=O)[C@@H](C=C(COC(C)=O)[C@@H](O)[C@]12O)[C@H]1[C@@H](C[C@H]3C)C1(C)C", "note": "[3EZ,20Ac-ingenol, 3-O-(2′E,4′Z-decadienoyl)-20-O-acetylingenol]", "values": [{"measurement": "activation of caspase 3", "setting": "caspase 3", "result": "activation of caspase 3 was observed"}, {"measurement": "expression of p21 protein", "setting": "p21 protein; 12 hours after treatment", "result": "induction of a high expression level of p21 protein was observed"}, {"measurement": "expression of p21 protein", "setting": "p21 protein; 48 hours after treatment", "result": "a rapid decrease in p21 protein was recognized"}, {"measurement": "expression level of ATR protein", "setting": "ATR protein; 12 hours, further increase 24 hours after treatment", "result": "an increase in expression level of ATR protein was recognized"}, {"measurement": "expression level of ATR protein", "setting": "ATR protein; 48 hours after treatment", "result": "a decrease was recognized"}, {"measurement": "abundance of p-Akt", "setting": "[1]; 3 to 48 hours, entire cell fraction", "result": "down-regulation of p-Akt abundance was observed"}, {"measurement": "abundance of p-Akt", "setting": "[1]; 24 hours after the start of treatment (Experimental Example 16)", "result": "an abundance of p-Akt in the BALL-1 cells decreased"}, {"measurement": "abundance of p-Akt", "setting": "[1]; 24 hours, nuclear fraction", "result": "a moderate decrease in abundance of p-Akt was observed"}, {"measurement": "abundance of p-Akt", "setting": "[1]; 48 hours, cytoplasm fraction", "result": "slightly reduced; also recorded: a slight decrease in abundance of p-Akt was observed"}, {"measurement": "abundance of p-Akt", "setting": "[1]; 48 hours, entire cell", "result": "a decrease in abundance of phosphorylated Akt"}, {"measurement": "abundance of p-Akt", "setting": "[1]; 48 hours, nuclear fraction", "result": "significantly decreased; also recorded: a further decrease in abundance of p-Akt"}, {"measurement": "abundance of p-Akt", "setting": "[1]; cells with siRNA against PTEN introduced, after 12 hours", "result": "an increase in abundance of p-Akt was observed"}, {"measurement": "abundance of p-Akt", "setting": "[1]; cells with siRNA against PTEN introduced, after 24 hours and 48 hours", "result": "a decrease in abundance of p-Akt was observed"}, {"measurement": "abundance of p-Akt", "setting": "p-Akt (Ser^473) [2]; cytoplasm fraction, 12 to 48 hours", "result": "a decrease in abundance of p-Akt was clearly recognized"}, {"measurement": "abundance of p-Akt", "setting": "p-Akt (Ser^473) [2]; entire cell fraction", "result": "a slight decrease in abundance of p-Akt was observed"}, {"measurement": "abundance of p-Akt", "setting": "p-Akt (Ser^473) [2]; nuclear fraction", "result": "no change in an abundance of p-Akt was recognized"}, {"measurement": "abundance of p-Akt", "setting": "p-Akt (Ser^473) [3]; entire cell fraction, 12 hours and 24 hours", "result": "a temporary increase in abundances of both p-Akt and total amount of Akt was recognized"}, {"measurement": "abundance of p-Akt", "setting": "p-Akt (Ser^473) [3]; entire cell fraction, 48 hours", "result": "a decrease was observed again"}, {"measurement": "abundance of p-Akt", "setting": "p-Akt (Ser^473) [3]; nuclear fraction and cytoplasm fraction, 12 to 24 hours", "result": "an increase in abundance of both p-Akt and total amount of Akt was recognized"}, {"measurement": "abundance of p-Akt", "setting": "p-Akt (Ser^473) [3]; nuclear fraction and cytoplasm fraction, 48 hours", "result": "a decrease was observed 48 hours after the treatment"}, {"measurement": "p-GSK-3β (an inactive type)", "setting": "p-GSK-3β (Ser^9)", "result": "a decrease in p-GSK-3β (an inactive type) was observed"}]}]}
